pIC50: −log10 of the molar value. Square brackets hold non-standard residues; d marks the D form. Peptide text beside a SMILES is read from it. * marks the point of attachment. ξ: configuration not given here. 1Nal = N[C@@H](Cc1cccc2ccccc12)C(=O)O; hPhe = N[C@@H](CCc1ccccc1)C(=O)O; tBuAla = CC(C)(C)C[C@H](N)C(=O)O; Ile(3ξ) = CCC(C)[C@H](N)C(=O)O; ξPhg = NC(C(=O)O)c1ccccc1; ξTle = CC(C)(C)C(N)C(=O)O; Cbz = O=C(OCc1ccccc1)*; ξL = CC(C)CC(N)C(=O)O; CH2Cl = ClC*
Columns and labels:
[1] = molecular target: Calpain 1 (Homo sapiens) (UniProt P04632+P07384); assay: Apparent second order rate constant for inhibition of calpain-1 by fluorogenic assay.; format: protein-complex assay
[2] = molecular target: Cathepsin B (Homo sapiens) (UniProt P07858); assay: Apparent second order rate constant for inhibition of cathepsin B by fluorogenic assay.
[3] = molecular target: Procathepsin L (Homo sapiens) (UniProt P07711); assay: Inhibition of cathepsin L (fluorogenic assay), apparent second order rate constant
[4] = molecular target: Calpain 1 (Homo sapiens, UniProt P07384); assay: Inhibition of Calpain 1 by [3H]acetyl-casein assay; format: protein-complex assay
Sequence of Calpain 1 (P04632 whole entry): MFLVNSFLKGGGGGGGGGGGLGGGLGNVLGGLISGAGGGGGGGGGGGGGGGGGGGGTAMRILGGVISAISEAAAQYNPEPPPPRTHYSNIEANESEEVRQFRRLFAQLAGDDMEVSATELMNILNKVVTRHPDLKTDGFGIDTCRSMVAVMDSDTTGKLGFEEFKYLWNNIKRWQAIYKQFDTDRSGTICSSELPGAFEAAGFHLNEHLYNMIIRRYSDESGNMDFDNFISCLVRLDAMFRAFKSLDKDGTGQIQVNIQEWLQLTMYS
Sequence of Calpain 1 (P07384 whole entry): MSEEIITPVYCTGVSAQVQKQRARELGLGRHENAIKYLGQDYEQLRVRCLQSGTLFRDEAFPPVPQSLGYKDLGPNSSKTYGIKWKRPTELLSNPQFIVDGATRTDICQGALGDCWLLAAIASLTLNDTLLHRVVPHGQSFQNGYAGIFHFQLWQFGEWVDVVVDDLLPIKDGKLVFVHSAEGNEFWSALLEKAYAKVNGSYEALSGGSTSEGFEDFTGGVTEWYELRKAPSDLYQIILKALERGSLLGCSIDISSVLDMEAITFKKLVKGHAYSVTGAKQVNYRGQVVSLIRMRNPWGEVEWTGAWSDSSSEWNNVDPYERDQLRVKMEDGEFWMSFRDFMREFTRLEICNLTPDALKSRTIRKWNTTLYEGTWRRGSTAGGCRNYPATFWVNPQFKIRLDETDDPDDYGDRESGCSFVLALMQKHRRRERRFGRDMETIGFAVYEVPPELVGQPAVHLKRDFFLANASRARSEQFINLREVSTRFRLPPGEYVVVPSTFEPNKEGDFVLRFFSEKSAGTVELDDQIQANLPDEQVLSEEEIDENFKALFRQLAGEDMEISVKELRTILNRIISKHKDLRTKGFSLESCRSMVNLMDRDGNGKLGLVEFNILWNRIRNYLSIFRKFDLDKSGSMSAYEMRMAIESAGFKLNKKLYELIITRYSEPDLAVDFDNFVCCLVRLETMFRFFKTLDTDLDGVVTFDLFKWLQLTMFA

Sequence of Procathepsin L (Homo sapiens) (P07711 114-333 limits assumed): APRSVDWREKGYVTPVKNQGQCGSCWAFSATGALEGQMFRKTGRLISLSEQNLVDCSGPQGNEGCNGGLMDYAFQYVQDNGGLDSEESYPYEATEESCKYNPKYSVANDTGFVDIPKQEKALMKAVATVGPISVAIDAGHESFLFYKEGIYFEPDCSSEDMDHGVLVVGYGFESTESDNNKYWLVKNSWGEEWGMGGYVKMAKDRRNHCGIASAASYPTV

| Structure (SMILES) | k obs / 1 [1] [M⁻¹ s⁻¹] | k obs / 1 [2] [M⁻¹ s⁻¹] | k obs / 1 [3] [M⁻¹ s⁻¹] | pIC50 [4] |
| --- | --- | --- | --- | --- |
| CC(C)C(NC(=O)OCc1ccccc1)C(=O)NCC(=O)COC(=O)c1c(Cl)ccc(S(=O)(=O)NCC(=O)OCc2ccccc2)c1Cl (stereo unspecified) | 12000 | 600000 | 120000 |  |
| CC(C)CC(NC(=O)OCc1ccccc1)C(=O)NC(Cc1ccccc1)C(=O)COC(=O)c1c(Cl)ccc(S(=O)(=O)CCN2CCOCC2)c1Cl (stereo unspecified) | 30000 | 80 | 38000 |  |
| CC(C)CC(NC(=O)[C@@H](C)NC(=O)OCc1ccccc1)C(=O)NC(Cc1ccccc1)C(=O)COC(=O)c1c(Cl)ccc(OCCN2CCOCC2)c1Cl (stereo partly specified) | 32000 | 400 | 28000 |  |
| CC(C)CC(NC(=O)OCc1ccccc1)C(=O)NCC(=O)COC(=O)c1c(Cl)cccc1Cl (stereo unspecified) | 6000 |  |  |  |
| CC(C)CC(NC(=O)CNC(=O)OCc1ccccc1)C(=O)NC(Cc1ccccc1)C(=O)COC(=O)c1c(F)cccc1F (stereo unspecified) | 15000 | 800 | 14000 |  |
| CC(C)CC(NC(=O)OCc1ccccc1)C(=O)NC(C)C(=O)COC(=O)c1c(Cl)ccc(OCCN2CCOCC2)c1Cl (stereo unspecified) | 6000 | 58000 |  |  |
| CC(C)CC(NC(=O)OC(C)(C)C)C(=O)NC(Cc1ccccc1)C(=O)COC(=O)c1c(F)cccc1F (stereo unspecified) | 8000 |  |  |  |
| CCC(C)[C@H](NC(=O)OCc1ccccc1)C(=O)N[C@H](C=O)Cc1ccc(O)cc1 (stereo partly specified) (Cbz-[Ile(3ξ)]-Tyr-aldehyde) |  |  |  | 7.26 |
| CC(C)[C@H](NC(=O)OCc1ccccc1)C(=O)N[C@H](C=O)CCc1ccccc1 (Cbz-Val-[hPhe]-aldehyde) |  |  |  | 7.00 |
| CC(C)CC(NC(=O)OCc1ccccc1)C(=O)NC(Cc1ccc(O)cc1)C(=O)CCl (stereo not drawn) (Cbz-Leu-Tyr-CH2Cl; configuration not given here) | 1500 | 2000 |  |  |
| CC(C)C[C@H](NC(=O)CNC(=O)OCc1ccccc1)C(=O)N[C@@H](Cc1ccccc1)C(=O)CCl (Cbz-Gly-Leu-Phe-CH2Cl) | 3300 | 2700 |  |  |
| COC(=O)N[C@H](C)C(=O)NC(CC(C)C)C(=O)NC(Cc1ccccc1)C(=O)COC(=O)c1c(Cl)ccc(OCCN2CCOCC2)c1Cl (stereo partly specified) | 43000 | 4700 | 90000 |  |
| CC(C)CC(NC(=O)OCc1ccccc1)C(=O)NCC(=O)COC(=O)c1c(Cl)ccc(S(=O)(=O)N2CCOCC2)c1Cl (stereo unspecified) | 23000 | 260000 | 160000 |  |
| COC(=O)N[C@H](C)C(=O)NC(CC(C)C)C(=O)NC(Cc1ccccc1)C(=O)COC(=O)c1c(F)cccc1F (stereo partly specified) | 1400 | 700 | 400 |  |
| CC(C)CC(NC(=O)OCc1ccccc1)C(=O)NCC(=O)COC(=O)c1c(Cl)ccc(OCCN2CCOCC2)c1Cl (stereo unspecified) | 6000 |  |  |  |
| CC(C)(C)C[C@H](NC(=O)OCc1ccccc1)C(=O)N[C@H](C=O)Cc1ccccc1 (Cbz-[tBuAla]-Phe-aldehyde) |  |  |  | 7.00 |
| CC(NC(=O)C(Cc1ccccc1)NC(=O)OCc1ccccc1)C(=O)COC(=O)c1c(Cl)ccc(OCCN2CCOCC2)c1Cl (stereo unspecified) | < 500 | 150000 | 180000 |  |
| CC(C)CC(NC(=O)[C@@H](C)NC(=O)OCc1ccccc1)C(=O)NCC(=O)COC(=O)c1c(Cl)ccc(OCCN2CCOCC2)c1Cl (stereo partly specified) | < 500 |  |  |  |
| O=C[C@H](Cc1ccccc1)NC(=O)[C@H](Cc1cccc2ccccc12)NC(=O)OCc1ccccc1 (Cbz-[1Nal]-Phe-aldehyde) |  |  |  | < 6.00 |
| CC(C)[C@H](NC(=O)OCc1ccccc1)C(=O)N[C@H](C=O)Cc1ccc(O)cc1 (Cbz-Val-Tyr-aldehyde) |  |  |  | 7.60 |
| CC(C)CC(NC(=O)OCc1ccccc1)C(=O)NC(Cc1ccc(O)cc1)C(=O)COC(=O)c1c(Cl)cccc1Cl (stereo unspecified) | 28000 | 1600 | 33000 |  |

| Structure (SMILES) | k obs / 1 [1] [M⁻¹ s⁻¹] | k obs / 1 [2] [M⁻¹ s⁻¹] | k obs / 1 [3] [M⁻¹ s⁻¹] | pIC50 [4] |
| --- | --- | --- | --- | --- |
| CC(C)CC(NC(=O)OCc1ccccc1)C(=O)NC(Cc1ccccc1)C(=O)COC(=O)c1c(Cl)cccc1Cl (stereo unspecified) | 11000 | 250 | 2700 |  |
| O=C[C@H](Cc1ccccc1)NC(=O)[C@H](CCc1ccccc1)NC(=O)OCc1ccccc1 (Cbz-[hPhe]-Phe-aldehyde) |  |  |  | 6.57 |
| CC(C)CC(NC(=O)OCc1ccccc1)C(=O)NC(C)C(=O)CCl (stereo unspecified) | 6000 | 43000 |  |  |
| O=C[C@H](Cc1ccccc1)NC(=O)C(NC(=O)OCc1ccccc1)c1ccccc1 (stereo partly specified) (Cbz-[ξPhg]-Phe-aldehyde) |  |  |  | 7.00 |
| CC(C)(C)C(NC(=O)OCc1ccccc1)C(=O)N[C@H](C=O)Cc1ccccc1 (stereo partly specified) (Cbz-[ξTle]-Phe-aldehyde) |  |  |  | 6.30 |
| CC(C)C(NC(=O)OCc1ccccc1)C(=O)NCC(=O)COC(=O)c1c(Cl)cccc1Cl (stereo unspecified) | 800 |  |  |  |
| CC(C)CC(NC(=O)OCc1ccccc1)C(=O)NC(Cc1ccc(O)cc1)C(=O)COC(=O)c1c(Cl)ccc(S(=O)(=O)CCN2CCOCC2)c1Cl (stereo unspecified) | 54000 | 2600 | 50000 |  |
| CC(C)CC(NC(=O)OCc1ccccc1)C(=O)NCC(=O)CCl (stereo unspecified) (Cbz-[ξL]-Gly-CH2Cl) | 31000 | 170000 | 500000 |  |
| CC(C)CC(NC(=O)OCc1ccccc1)C(=O)NC(Cc1ccc(O)cc1)C(=O)COC(=O)c1c(F)cccc1F (stereo unspecified) | 7000 |  |  |  |
| COc1ccc(C[C@@H](C=O)NC(=O)[C@@H](NC(=O)OCc2ccccc2)C(C)C)cc1 (Cbz-Val-Tyr(Me)-aldehyde) |  |  |  | 7.52 |
| CC(C)C(NC(=O)OCc1ccccc1)C(=O)NC(Cc1ccccc1)C(=O)COC(=O)c1c(Cl)cccc1Cl (stereo unspecified) | 11000 |  |  |  |
| CC(C)C[C@H](NC(=O)OCc1ccccc1)C(=O)N[C@H](C=O)Cc1ccc(O)cc1 (Cbz-Leu-Tyr-aldehyde) |  |  |  | 7.70 |
| O=C[C@H](Cc1ccccc1)NC(=O)[C@H](Cc1ccccc1)NC(=O)OCc1ccccc1 (Cbz-Phe-Phe-aldehyde) |  |  |  | 6.40 |
| Cc1ccc(S(=O)(=O)NC(CC(C)C)C(=O)NC(Cc2ccccc2)C(=O)COC(=O)c2c(F)cccc2F)cc1 (stereo unspecified) | 1500 |  |  |  |
| CC(C)C(NC(=O)OCc1ccccc1)C(=O)NC(Cc1ccccc1)C(=O)COC(=O)c1c(Cl)ccc(S(=O)(=O)CCN2CCOCC2)c1Cl (stereo unspecified) | 20000 | 5500 | 63000 |  |
| CC(C)C[C@H](NC(=O)OCc1ccccc1)C(=O)N[C@@H](Cc1ccc(O)cc1)C(=O)CBr | < 500 | 50 |  |  |
| O=C(CNC(=O)OCc1ccccc1)NC(Cc1ccccc1)C(=O)COC(=O)c1c(Cl)cccc1Cl (stereo unspecified) | 700 |  |  |  |
| CC(=O)Nc1cccc(Cl)c1C(=O)OCC(=O)CNC(=O)C(CC(C)C)NC(=O)OCc1ccccc1 (stereo unspecified) | 600 |  |  |  |
| CC(C)CC(NC(=O)OCc1ccccc1)C(=O)NC(Cc1ccc(O)cc1)C(=O)COC(=O)c1c(Cl)ccc(S(=O)(=O)N2CCOCC2)c1Cl (stereo unspecified) | 14000 |  |  |  |
| CC(C)CC(NC(=O)[C@@H](C)NC(=O)OCc1ccccc1)C(=O)NC(Cc1ccccc1)C(=O)COC(=O)c1c(F)cccc1F (stereo partly specified) | 31000 | 100 | 300 |  |
| CC(C)C[C@H](NC(=O)OCc1ccccc1)C(=O)N[C@@H](CC(C)C)C(=O)N[C@@H](Cc1ccccc1)C(=O)CCl (Cbz-Leu-Leu-Phe-CH2Cl) | 9500 | 30000 |  |  |

| Structure (SMILES) | k obs / 1 [1] [M⁻¹ s⁻¹] | k obs / 1 [2] [M⁻¹ s⁻¹] | k obs / 1 [3] [M⁻¹ s⁻¹] | pIC50 [4] |
| --- | --- | --- | --- | --- |
| CC(NC(=O)C(Cc1ccccc1)NC(=O)OCc1ccccc1)C(=O)CCl (stereo unspecified) | < 500 | 220000 |  |  |
| CC(C)[C@H](NC(=O)OCc1ccccc1)C(=O)N[C@H](C=O)Cc1cccc2ccccc12 (Cbz-Val-[1Nal]-aldehyde) |  |  |  | 7.00 |
| CC(NC(=O)OCc1ccccc1)C(=O)NCC(=O)COC(=O)c1c(Cl)cccc1Cl (stereo unspecified) | < 500 |  |  |  |
| CC(C)CC(NC(=O)[C@@H](Cc1ccccc1)NC(=O)OCc1ccccc1)C(=O)NC(Cc1ccccc1)C(=O)COC(=O)c1c(F)cccc1F (stereo partly specified) | 1000 | 100 | 100 |  |
| CC(C)CC(NC(=O)OCc1ccccc1)C(=O)NC(Cc1ccccc1)C(=O)CCl (stereo not drawn) (Cbz-Leu-Phe-CH2Cl; configuration not given here) | 5500 | 2500 |  |  |
| CC(C)C[C@H](NC(=O)OCc1ccccc1)C(=O)N[C@H](C=O)Cc1ccccc1 (Cbz-Leu-Phe-aldehyde) |  |  |  | 7.46 |
| O=C(CNC(=O)C(Cc1ccccc1)NC(=O)OCc1ccccc1)COC(=O)c1c(Cl)cccc1Cl (stereo unspecified) | < 500 |  |  |  |
| CC(C)CC(C(=O)NC(Cc1ccccc1)C(=O)COC(=O)c1c(F)cccc1F)N(C)C(=O)OCc1ccccc1 (stereo unspecified) | < 500 |  |  |  |
| CC(C)C[C@H](NC(=O)[C@@H]1CCCN1C(=O)OCc1ccccc1)C(=O)N[C@@H](Cc1ccccc1)C(=O)COC(=O)c1c(F)cccc1F | 26500 | 11000 |  |  |
| CC(C)C[C@H](NC(=O)[C@H](C)NC(=O)OCc1ccccc1)C(=O)N[C@@H](Cc1ccccc1)C(=O)COC(=O)c1c(F)cccc1F | 19000 | 2200 | 1600 |  |
| O=C(CNC(=O)OCc1ccccc1)NC(Cc1ccccc1)C(=O)COC(=O)c1c(Cl)ccc(S(=O)(=O)NCC(=O)OCc2ccccc2)c1Cl (stereo unspecified) | 900 |  |  |  |
| Cc1cccc(C)c1C(=O)OCC(=O)C(Cc1ccccc1)NC(=O)C(NC(=O)OCc1ccccc1)C(C)C (stereo unspecified) | 700 |  |  |  |
| CC(=O)Nc1cccc(Cl)c1C(=O)OCC(=O)C(C)NC(=O)C(CC(C)C)NC(=O)OCc1ccccc1 (stereo unspecified) | 500 |  |  |  |
| CC(NC(=O)C(Cc1ccccc1)NC(=O)OCc1ccccc1)C(=O)COC(=O)c1c(Cl)cccc1Cl (stereo unspecified) | < 500 | 360000 | 104000 |  |
| O=C(N[C@@H](Cc1ccccc1)C(=O)N[C@@H](Cc1ccccc1)C(=O)CCl)OCc1ccccc1 (Cbz-Phe-Phe-CH2Cl) | < 500 |  |  |  |
| C[C@H](NC(=O)OCc1ccccc1)C(=O)N[C@H](C=O)Cc1ccccc1 |  |  |  | 6.85 |
| CC(C)CC(NC(=O)OCc1ccccc1)C(=O)NC(C)C(=O)COC(=O)c1c(Cl)ccc(S(=O)(=O)N2CCOCC2)c1Cl (stereo unspecified) | 14000 |  |  |  |
| CC(C)CC(NC(=O)OCc1ccccc1)C(=O)NC(Cc1ccccc1)C(=O)COC(=O)c1c(Cl)ccc(S(=O)(=O)N2CCOCC2)c1Cl (stereo unspecified) | 17000 |  |  |  |
| NC(=O)CC(NC(=O)OCc1ccccc1)C(=O)NC(Cc1ccccc1)C(=O)CCl (stereo not drawn) (Cbz-Asn-Phe-CH2Cl; configuration not given here) | 600 | 3000 |  |  |
| CC(C)CC(NC(=O)OCc1ccccc1)C(=O)NC(Cc1ccccc1)C(=O)COC(=O)c1c(F)cccc1F (stereo unspecified) | 9000 |  |  |  |
